Reference: US9643976B2, “Solvates of darunavir” (Aurobindo Pharma Ltd., priority 2012, dated 2017)

How the values were obtained:
[1] = hygroscopic testing (solvent content before and after); details: for Final (Solvent content): after hygroscopic testing at 25° C.±2° C. and 80% RH±2° C. for 24 h, solvent replaced with water; for Initial (Solvent content): before hygroscopic testing
[2] = hygroscopicity at moderate or high relative humidity at 25° C.; type: physicochemical
Excerpt: Further, the isolation of Darunavir ethanolate involves special precautions during isolation, drying and powder processing, which is onerous during the large scale manufacturing of Darunavir ethanolate.

Row | SMILES | Final (Solvent content) [1] | Initial (Solvent content) [1] | hygroscopicity / conversion to hydrate [2]
1 | CC(C)CN(C[C@@H](O)[C@H](Cc1ccccc1)NC(=O)O[C@H]1CO[C@H]2OCC[C@H]21)S(=O)(=O)c1ccc(N)cc1 [Darunavir propylene glycolate] | 10.37% | 11.51% | –
2 | CC(C)CN(C[C@@H](O)[C@H](Cc1ccccc1)NC(=O)O[C@H]1CO[C@H]2OCC[C@H]21)S(=O)(=O)c1ccc(N)cc1 [Darunavir ethanolate] | 0.67% | 6.75% | hygroscopic and converts to Darunavir hydrate
